Reference: the supplement of paper PMC8498969

Assays:
[1] = tested on: HEK293; test: cytotoxicity IC50 (ATP content, uninfected cells); higher = less cytotoxic; settings: infection: none
[2] = tested on: HEK293; test: maximal inhibition of ZIKV NS1 production (% inhibition); higher = stronger antiviral effect
Description: (§1)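 HEK293 cells in 1536-well plates were pre-treated with compound for 1 h, infected with ZIKV (MOI 1) for 24 h, and NS1 antigen (intra- plus extracellular) was measured by TR-FRET. Confirmation used 11-point 1:3 dilutions, and IC50 and maximal inhibition were fitted in GraphPad Prism.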

[3] = tested on: HEK293; test: IC50 for inhibition of ZIKV NS1 production
Description: as §1

SMILES	cytotoxicity IC50 [1]	maximal inhibition [2]	IC50 [3]
C=C1C(=O)[C@]23[C@H](O)[C@H]1CC[C@H]2[C@@]12CO[C@]3(O)[C@@H](O)[C@@H]1C(C)(C)CC[C@@H]2O	40 µM	108	17 µM
O[C@@H](CNC[C@H](O)[C@H]1CCc2cc(F)ccc2O1)[C@@H]1CCc2cc(F)ccc2O1	> 100 µM	94	24 µM
C=CC(=O)N1CCc2ccc(-n3c(=O)ccc4cnc5ccc(-c6cnn(C)c6)cc5c43)cc21	> 100 µM	105	13 µM
O=C(Nc1ccncc1)C(=O)c1cn(Cc2ccc(Cl)cc2)c2ccccc12	70 µM	39	1.3 µM
CC[C@@H]1[C@@H](C)O[C@@](O)([C@@H](C)[C@H](O)[C@H](C)[C@H]2OC(=O)/C=C/C=C/[C@H](C)[C@@H]([C@@H](C)[C@@H](O)[C@H](C)[C@@]3(O)C[C@@H](O[C@H]4C[C@H](O)[C@H](O)[C@H](C)O4)[C@H](CC)[C@@H](C)O3)OC(=O)/C=C/C=C/[C@@H]2C)C[C@H]1O[C@H]1C[C@H](O)[C@H](O)[C@H](C)O1	1.5 µM	100	3.9 µM
Cc1nc2cnc3ccc(C#Cc4cccnc4)cc3c2n1-c1ccc(C(C)(C)C#N)cc1	10 µM	102	1.4 µM
FC(F)c1nc2ccccc2n1-c1nc(N2CCOCC2)nc(N2CCOCC2)n1	60 µM	85	3.9 µM
COc1cccc2c1C(=O)c1c(O)c3c(c(O)c1C2=O)C[C@@](O)(C(=O)CO)C[C@@H]3O[C@H]1C[C@H](N)[C@H](O[C@@H]2CCCCO2)[C@H](C)O1	> 100 µM	75	5.6 µM
Nc1cc(C(F)(F)F)c(-c2cc(N3CCOCC3)nc(N3CCOCC3)n2)cn1	2.3 µM	74	4.2 µM
CC[C@@]1(O)C(=O)OCc2c1cc1n(c2=O)Cc2cc3cc(O)ccc3nc2-1	> 100 µM	100	0.047 µM
Cn1c(CCCC(=O)O)nc2cc(N(CCCl)CCCl)ccc21	> 100 µM	92	50 µM
CO/C1=C\C(C)=C\[C@@H](C)[C@@H](O)[C@@H](C)C/C(C)=C/C=C/[C@H](OC)[C@@H]([C@@H](C)[C@@H](O)[C@H](C)[C@@]2(O)C[C@@H](O)[C@H](C)[C@@H](C(C)C)O2)OC1=O	80 µM	101	5.3 µM
COC(=O)Nc1nc2cc(C(=O)c3ccccc3)ccc2[nH]1	> 100 µM	69	1 µM
CCC1=C[C@@H]2CN(C1)Cc1c([nH]c3ccccc13)[C@@](C(=O)OC)(c1cc3c(cc1OC)N(C)[C@H]1[C@@](O)(C(=O)OC)[C@H](OC(C)=O)[C@]4(CC)C=CCN5CC[C@]31[C@@H]54)C2	> 100 µM	95	0.27 µM
C/C=C(\C)C(=O)N[C@@H](c1ccccc1)[C@@H](O)C(=O)O[C@H]1C[C@@]2(O)[C@@H](OC(=O)c3ccccc3)[C@@H]3[C@]4(OC(C)=O)CO[C@@H]4C[C@H](O)[C@@]3(C)C(=O)[C@H](OC(C)=O)C(=C1C)C2(C)C	> 100 µM	67	0.22 µM
Cc1cc2c(F)c(Oc3ncnn4cc(OC[C@@H](C)O)c(C)c34)ccc2[nH]1	1.4 µM	104	2.9 µM
O=C1NC(=O)[C@@H](c2cn3c4c(cccc24)CCC3)[C@@H]1c1c[nH]c2ccccc12	1.6 µM	86	18 µM
COC[C@H](NC(=O)c1cnc(C)s1)C(=O)N[C@@H](COC)C(=O)N[C@@H](Cc1ccccc1)C(=O)[C@@]1(C)CO1	0.72 µM	100	0.32 µM

SMILES	cytotoxicity IC50 [1]	maximal inhibition [2]	IC50 [3]
COc1cc([C@@H]2c3cc4c(cc3[C@@H](O[C@@H]3O[C@@H]5CO[C@@H](C)O[C@H]5[C@H](O)[C@H]3O)[C@H]3COC(=O)[C@H]23)OCO4)cc(OC)c1O	> 100 µM	102	2.2 µM
S=c1nc[nH]c2nc[nH]c12	6.5 µM	99	12 µM
CCN1/C(=C/C=C/c2sc3ccccc3[n+]2CC)Sc2ccccc21	1.2 µM	71	50 µM
COc1cc(OC)c(/C=C/S(=O)(=O)Cc2ccc(OC)c(NCC(=O)O)c2)c(OC)c1	> 100 µM	61	1.4 µM
CN(Cc1cnc2nc(N)nc(N)c2n1)c1ccc(C(=O)N[C@@H](CCC(=O)O)C(=O)O)cc1	0.24 µM	95	0.46 µM
CO[C@@H]1[C@@H](OC)[C@H](C)[C@@](O)(CC(=O)O)O[C@H]1[C@H](C)[C@H]1O[C@@]2(CC[C@@](C)([C@H]3CC[C@@](C)([C@@H]4O[C@@H]([C@H]5O[C@](C)(O)[C@H](C)C[C@@H]5C)C[C@@H]4O[C@@H]4C[C@H](OC)[C@@H](OC)[C@H](C)O4)O3)O2)C[C@H](O)[C@H]1C	1.5 µM	100	1.4 µM
OCCCNc1cc(-c2ccnc(Nc3cccc(Cl)c3)n2)ccn1	60 µM	103	0.79 µM
CC[C@@]1([C@@H]2O[C@@H]([C@H]3O[C@@](O)(CO)[C@H](C)C[C@@H]3C)C[C@@H]2C)CC[C@H]([C@]2(C)CC[C@]3(C[C@H](O)[C@@H](C)[C@@H]([C@@H](C)[C@@H](OC)[C@H](C)C(=O)O)O3)O2)O1	> 100 µM	103	2.8 µM
C[C@@H](Oc1cc(-n2cnc3ccc(CN4CCN(C)CC4)cc32)sc1C(N)=O)c1ccccc1C(F)(F)F	> 100 µM	98	14 µM
CC(C)(O)/C=C/C(=O)[C@](C)(O)[C@H]1[C@H](O)C[C@@]2(C)[C@@H]3CC=C4[C@@H](C=C(O)C(=O)C4(C)C)[C@]3(C)C(=O)C[C@]12C	3 µM	52	45 µM
OC[C@H](Cc1ccccc1)Nc1nc(Oc2ccc3c(c2)CCC3)nc2c1ncn2Cc1ccc(-c2ccccc2)cc1	90 µM	100	7.8 µM
COc1cccc2nc(-c3cccs3)nc(NN3C(=O)C=C(C)C3=O)c12	50 µM	103	11 µM
COc1ccc(-c2cc3c(C)nc(N)nc3n([C@H]3CC[C@H](OCCO)CC3)c2=O)cn1	0.47 µM	78	1.5 µM
Nc1nc(F)nc2c1ncn2[C@@H]1O[C@H](CO)[C@@H](O)[C@H]1O	11 µM	98	2.9 µM
CCC(=O)N1CCN(c2ccc(-n3c(=O)ccc4cnc5ccc(-c6cnc7ccccc7c6)cc5c43)cc2C(F)(F)F)CC1	1.5 µM		
CC(C)(C)CC(C)(C)c1ccc(OCCOCC[N+](C)(C)Cc2ccccc2)cc1		103	9 µM
CC[C@@H]1C(=O)N(C)c2cnc(Nc3ccc(C(=O)NC4CCN(C)CC4)cc3OC)nc2N1C1CCCC1	> 100 µM		
CCc1cnn2c(NCc3ccc[n+]([O-])c3)cc(N3CCCC[C@H]3CCO)nc12	> 100 µM	90	
